The results in this text go back to publication PMC5853558, “De novo identification of lipid II binding lipopeptides with antibacterial activity against vancomycin-resistant bacteria” (Chemical Science, 2017).

The experiment deals with M. luteus (NCTC2665). The experiment in a line: microbe, parasite or virus in culture. The class given is cell-based, Micrococcus luteus. The settings on record: for MIC of Ala scan of P8-D against M. luteus: Supplemental table S8, non-lipidated P8 variants, broth microdilution, highest tested 512 µg/ml; for MIC against M. luteus: Table 1, non-lipidated bicyclic peptides, broth microdilution in TSB, 16 h, read visually, n.a. = no activity, highest tested concentration 512 μg mL^–1. As to the method: Section 4 Biological and biochemical experiments
4.1 Minimum inhibitory concentration assay
MIC values were determined by using the broth microdilution method. Peptides were dissolved first in DMSO and diluted with broth so that the final peptide concentration was 1024 µg/ml and the DMSO concentration was 4%. Peptide serial dilutions were made in TSB in a polypropylene 96-wells plate using 50 µl volumes. An overnight culture of the organism of interest was diluted to and OD600 of 0.01 and grown until they reach 0.5. The culture was then diluted to 1 x 10^6 CFU/ml and 50 µl of this suspension was added to each well. The highest concentrations were then 512 µg/ml peptide and 2% DMSO. The plates were incubated at the preferred growth temperature of the organism that was used and 250 rpm. […] When […]
determining the MICs of the lipidated peptides, the lipopeptides were first dissolved in DMSO and diluted with TSB so that the peptide concentration was 128 µg/ml and the DMSO concentration was 4%. After inoculation the highest peptide concentration evaluated was 64 µg/ml and the DMSO concentration was 2%. A DMSO control was tested for each strain to ensure the DMSO did not affect the growth of the particular strain. […]
Background: Broth dilution looks for growth in wells or tubes with falling amounts of substance.

*1 amine or outer side, *2 acyl side, *3 side chain or, on linkers, in order; H or OH if unused. Where a SMILES comes first, the peptide text is derived from it. Bridges are numbered along the chain shown (N, C = ends). [ ]: non-standard residue; d: D form. TBMB = c1c(C[*:1])cc(C[*:3])cc1C[*:2]

As to `CC(C)C[C@H]1NC(=O)[C@H](NC(=O)[C@@H](C)N)CSCc2cc3cc(c2)CSC[C@@H](NC(=O)[C@@H](CC(C)C)NC(=O)[C@@H](CC(C)C)NC(=O)[C@@H](CO)NC(=O)[C@@H](CCC(N)=O)NC(=O)[C@@H](CC(C)C)NC1=O)C(=O)N1CCC[C@@H]1C(=O)N[C@H](Cc1ccc(O)cc1)C(=O)N[C@H](C)C(=O)N[C@H]([C@H](C)O)C(=O)N[C@H](Cc1c[nH]cn1)C(=O)N[C@H](CCCNC(=N)N)C(=O)N[C@@H](C(=O)NCC(N)=O)CSC3` [Peptide P8-D-S12A] (H-[dA][dC][dL][dL][dQ][dS][dL][dL][dC][dP][dY][dA][dT][dH][dR][dC]G-NH2; linker 2-9-16 via TBMB; N-terminus assumed), the “MIC of Ala scan of P8-D against M. luteus” value (“MIC of Ala scan of P8-D” for short) is 512 µg/mL. Same read-out and setting: under `CC(C)C[C@H]1NC(=O)[C@H](NC(=O)[C@@H](C)N)CSCc2cc3cc(c2)CSC[C@@H](NC(=O)[C@@H](CC(C)C)NC(=O)[C@@H](CC(C)C)NC(=O)[C@@H](CO)NC(=O)[C@@H](CCC(N)=O)NC(=O)[C@@H](CC(C)C)NC1=O)C(=O)N1CCC[C@@H]1C(=O)N[C@H](Cc1ccc(O)cc1)C(=O)N[C@H](CO)C(=O)N[C@H]([C@H](C)O)C(=O)N[C@H](C)C(=O)N[C@H](CCCNC(=N)N)C(=O)N[C@@H](C(=O)NCC(N)=O)CSC3` [Peptide P8-D-H14A] (H-[dA][dC][dL][dL][dQ][dS][dL][dL][dC][dP][dY][dS][dT][dA][dR][dC]G-NH2; linker 2-9-16 via TBMB; N-terminus assumed) stands 64 to 128 µg/mL. `CC(C)C[C@@H]1NC(=O)[C@@H]2CSCc3cc(cc(c3)CSC[C@@H](C(=O)NCC(N)=O)NC(=O)[C@H](CC(=O)O)NC(=O)[C@H](C(C)C)NC(=O)[C@H]([C@@H](C)O)NC(=O)[C@H](CCC(N)=O)NC(=O)[C@H](Cc3ccccc3)NC1=O)CSC[C@H](NC(=O)[C@H](C)N)C(=O)N[C@@H](Cc1ccc(O)cc1)C(=O)N1CCC[C@H]1C(=O)N[C@@H](C(C)C)C(=O)N[C@@H](CC(=O)O)C(=O)N[C@@H](Cc1c[nH]c3ccccc13)C(=O)N[C@@H](Cc1ccc(O)cc1)C(=O)N2` [Peptide P6] (H-ACYPVDWYCLFQTVDCG-NH2; linker 2-9-16 via TBMB; N-terminus assumed): the “MIC against M. luteus” value was 128 μg mL^–1.

For `CC(C)C[C@H]1NC(=O)[C@H](NC(=O)[C@@H](C)N)CSCc2cc3cc(c2)CSC[C@@H](NC(=O)[C@@H](CC(C)C)NC(=O)[C@@H](CC(C)C)NC(=O)[C@@H](CO)NC(=O)[C@@H](CCC(N)=O)NC(=O)[C@@H](CC(C)C)NC1=O)C(=O)N1CCC[C@@H]1C(=O)N[C@H](C)C(=O)N[C@H](CO)C(=O)N[C@H]([C@H](C)O)C(=O)N[C@H](Cc1c[nH]cn1)C(=O)N[C@H](CCCNC(=N)N)C(=O)N[C@@H](C(=O)NCC(N)=O)CSC3` [Peptide P8-D-Y11A] (H-[dA][dC][dL][dL][dQ][dS][dL][dL][dC][dP][dA][dS][dT][dH][dR][dC]G-NH2; linker 2-9-16 via TBMB; N-terminus assumed), the “MIC of Ala scan of P8-D” value came to 512 µg/mL. Consider `CC(C)C[C@H]1NC(=O)[C@H](NC(=O)[C@@H](C)N)CSCc2cc3cc(c2)CSC[C@@H](NC(=O)[C@@H](CC(C)C)NC(=O)[C@@H](CC(C)C)NC(=O)[C@@H](CO)NC(=O)[C@@H](CCC(N)=O)NC(=O)[C@@H](CC(C)C)NC1=O)C(=O)N1CCC[C@@H]1C(=O)N[C@H](Cc1ccc(O)cc1)C(=O)N[C@H](CO)C(=O)N[C@H]([C@H](C)O)C(=O)N[C@H](Cc1c[nH]cn1)C(=O)N[C@H](CCCNC(=N)N)C(=O)N[C@@H](C(=O)NCC(N)=O)CSC3` [Peptide P8] (H-[dA][dC][dL][dL][dQ][dS][dL][dL][dC][dP][dY][dS][dT][dH][dR][dC]G-NH2; linker 2-9-16 via TBMB; N-terminus assumed), for which the “MIC of Ala scan of P8-D” value was 128 µg/mL and the “MIC against M. luteus” value was 64–128 μg mL^–1.

For the compound `CC[C@H](C)[C@@H]1NC(=O)[C@@H]2CSCc3cc(cc(c3)CSC[C@@H](C(=O)NCC(N)=O)NC(=O)[C@H](CCCNC(=N)N)NC(=O)[C@H]([C@@H](C)CC)NC(=O)[C@H](CC(N)=O)NC(=O)[C@H](C)NC(=O)[C@H](CO)NC1=O)CSC[C@H](NC(=O)[C@H](C)N)C(=O)N[C@@H](CCCNC(=N)N)C(=O)N1CCC[C@H]1C(=O)N[C@@H](CCC(N)=O)C(=O)N[C@@H](CCCCN)C(=O)N[C@@H](Cc1ccccc1)C(=O)N[C@@H](CC(N)=O)C(=O)N2` [Peptide P4] (H-ACRPQKFNCISANIRCG-NH2; linker 2-9-16 via TBMB; N-terminus assumed), the “MIC against M. luteus” value is 64 μg mL^–1.

Turning to `CC(C)C[C@H]1NC(=O)[C@H](NC(=O)[C@@H](C)N)CSCc2cc3cc(c2)CSC[C@@H](NC(=O)[C@@H](CC(C)C)NC(=O)[C@@H](CC(C)C)NC(=O)[C@@H](CO)NC(=O)[C@@H](CCC(N)=O)NC(=O)[C@@H](CC(C)C)NC1=O)C(=O)N[C@H](C)C(=O)N[C@H](Cc1ccc(O)cc1)C(=O)N[C@H](CO)C(=O)N[C@H]([C@H](C)O)C(=O)N[C@H](Cc1c[nH]cn1)C(=O)N[C@H](CCCNC(=N)N)C(=O)N[C@@H](C(=O)NCC(N)=O)CSC3` [Peptide P8-D-P10A] (H-[dA][dC][dL][dL][dQ][dS][dL][dL][dC][dA][dY][dS][dT][dH][dR][dC]G-NH2; linker 2-9-16 via TBMB; N-terminus assumed), the “MIC of Ala scan of P8-D” value was determined as 128 µg/mL.

On to `CC(C)C[C@H]1NC(=O)[C@H](NC(=O)[C@@H](C)N)CSCc2cc3cc(c2)CSC[C@@H](NC(=O)[C@@H](CC(C)C)NC(=O)[C@@H](CC(C)C)NC(=O)[C@@H](CO)NC(=O)[C@@H](CCC(N)=O)NC(=O)[C@@H](C)NC1=O)C(=O)N1CCC[C@@H]1C(=O)N[C@H](Cc1ccc(O)cc1)C(=O)N[C@H](CO)C(=O)N[C@H]([C@H](C)O)C(=O)N[C@H](Cc1c[nH]cn1)C(=O)N[C@H](CCCNC(=N)N)C(=O)N[C@@H](C(=O)NCC(N)=O)CSC3` [Peptide P8-D-L4A] (H-[dA][dC][dL][dA][dQ][dS][dL][dL][dC][dP][dY][dS][dT][dH][dR][dC]G-NH2; linker 2-9-16 via TBMB; N-terminus assumed), for which the “MIC of Ala scan of P8-D” value is more than 512 µg/mL.

Regarding `CC(C)C[C@H]1NC(=O)[C@@H](CO)NC(=O)[C@@H](CCC(N)=O)NC(=O)[C@@H](CC(C)C)NC(=O)[C@@H](CC(C)C)NC(=O)[C@H](NC(=O)[C@@H](C)N)CSCc2cc3cc(c2)CSC[C@@H](NC(=O)[C@@H](C)NC1=O)C(=O)N1CCC[C@@H]1C(=O)N[C@H](Cc1ccc(O)cc1)C(=O)N[C@H](CO)C(=O)N[C@H]([C@H](C)O)C(=O)N[C@H](Cc1c[nH]cn1)C(=O)N[C@H](CCCNC(=N)N)C(=O)N[C@@H](C(=O)NCC(N)=O)CSC3` [Peptide P8-D-L8A] (H-[dA][dC][dL][dL][dQ][dS][dL][dA][dC][dP][dY][dS][dT][dH][dR][dC]G-NH2; linker 2-9-16 via TBMB; N-terminus assumed), the “MIC of Ala scan of P8-D” value was in the range of 128 to 256 µg/mL.

`CC(C)C[C@H]1NC(=O)[C@@H](C)NC(=O)[C@@H](CO)NC(=O)[C@@H](CCC(N)=O)NC(=O)[C@@H](CC(C)C)NC(=O)[C@@H](CC(C)C)NC(=O)[C@H](NC(=O)[C@@H](C)N)CSCc2cc3cc(c2)CSC[C@@H](NC1=O)C(=O)N1CCC[C@@H]1C(=O)N[C@H](Cc1ccc(O)cc1)C(=O)N[C@H](CO)C(=O)N[C@H]([C@H](C)O)C(=O)N[C@H](Cc1c[nH]cn1)C(=O)N[C@H](CCCNC(=N)N)C(=O)N[C@@H](C(=O)NCC(N)=O)CSC3` [Peptide P8-D-L7A] (H-[dA][dC][dL][dL][dQ][dS][dA][dL][dC][dP][dY][dS][dT][dH][dR][dC]G-NH2; linker 2-9-16 via TBMB; N-terminus assumed): the “MIC of Ala scan of P8-D” value was found to be 512 µg/mL.
